From ChEMBL document CHEMBL1221336, “Xanthones with neuraminidase inhibitory activity from the seedcases of Garcinia mangostana” (Bioorg Med Chem, 2010)

Columns and labels:
Sialidase [1] = target: T1, Sialidase (Clostridium perfringens, UniProt P10481); experiment: Competitive inhibition of Clostridium perfringens neuraminidase by fluorimetry
T1 sequence (P10481 whole entry): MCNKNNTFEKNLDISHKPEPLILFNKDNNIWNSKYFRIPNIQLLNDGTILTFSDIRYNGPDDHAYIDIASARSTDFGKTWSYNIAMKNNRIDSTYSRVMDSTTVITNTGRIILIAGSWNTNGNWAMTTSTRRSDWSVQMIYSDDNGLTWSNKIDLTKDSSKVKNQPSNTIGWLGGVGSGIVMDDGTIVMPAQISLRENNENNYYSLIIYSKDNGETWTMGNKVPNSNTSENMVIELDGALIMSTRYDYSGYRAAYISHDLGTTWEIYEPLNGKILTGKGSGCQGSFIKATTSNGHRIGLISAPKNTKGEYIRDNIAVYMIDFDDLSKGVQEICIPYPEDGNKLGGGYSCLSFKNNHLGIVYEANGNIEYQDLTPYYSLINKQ

[2] = target: T2, Sialidase (Clostridium perfringens) (UniProt P10481); experiment: Inhibition of Clostridium perfringens neuraminidase at 1.56 uM by fluorimetry; settings: TDE = time-dependent effect
T2 sequence (whole entry): T1 sequence (P10481 whole entry)

Sialidase [3] = target: T1, Sialidase; experiment: Inhibition of Clostridium perfringens neuraminidase by fluorimetry; settings: for Ki: read-out: Ki(app)

| SMILES | Ki (Sialidase [1]) | inhibition [2] | IC50 (Sialidase [3]) | Ki (Sialidase [3]) |
| --- | --- | --- | --- | --- |
| CC(C)=CCc1c(O)cc2oc3cc(O)c(O)c(CC=C(C)C)c3c(=O)c2c1O | 0.8 µM | tde | 2.2 µM | 7.41 µM |
| COc1cc2oc3cc(O)c(OC)c(CC=C(C)C)c3c(=O)c2c(O)c1CC=C(C)C | 24.9 µM |  | 60.7 µM |  |
| CC(C)=CCc1c(O)c(CC=C(C)C)c2oc3c(O)cccc3c(=O)c2c1O [8-DEOXYGARTANIN] | 15.5 µM |  | 29.2 µM |  |
| COc1cc2oc3c(O)cccc3c(=O)c2c(O)c1CC=C(C)C [CUDRAXANTHONE] | 35.2 µM |  | 65.7 µM |  |
| COc1c(O)cc2oc3cc(O)c(CC=C(C)C)c(O)c3c(=O)c2c1CCC(C)(C)O [GARCINONE D] | 3.3 µM |  | 5.7 µM |  |
| CC(C)=CCc1c(O)c(CC=C(C)C)c2oc3c(O)ccc(O)c3c(=O)c2c1O [GARTANIN] | 3.6 µM | tde | 2.9 µM | 0.437 µM |
| COc1c(O)cc2oc3cc4c(c(O)c3c(=O)c2c1CC=C(C)C)C=CC(C)(C)O4 [MANGOSTANIN] | 5.9 µM |  | 20.1 µM |  |
| COc1c(O)cc2oc3cc4c(c(O)c3c(=O)c2c1CC=C(C)C)CC(O)C(C)(C)O4 (stereo unspecified) [MANGOSTANOL] | 6.5 µM |  | 21.5 µM |  |
| C=C(C)C1Cc2c(cc3oc4cc(O)c(OC)c(CC=C(C)C)c4c(=O)c3c2O)O1 (stereo unspecified) [MANGOSTENONE F] | 7.6 µM |  | 24.8 µM |  |
| C=C(C)C1Cc2c(c(O)cc3oc4cc(O)c(CC=C(C)C)c(O)c4c(=O)c23)O1 (stereo unspecified) [MANGOSTENONE G] | 6.8 µM |  | 14.6 µM |  |
| COc1c(O)cc2oc3cc(O)c(CC=C(C)C)c(O)c3c(=O)c2c1CC=C(C)C [MANGOSTIN] | 5.8 µM |  | 12.2 µM |  |
| O=c1c(O)c(-c2ccc(O)c(O)c2)oc2cc(O)cc(O)c12 [QUERCETIN] |  |  | 9.8 µM |  |
| CC(C)=CCC/C(C)=C/Cc1c(O)cc2oc3c(O)ccc(O)c3c(=O)c2c1O [SMEATHXANTHONE A] | 0.15 µM | tde | 0.27 µM | 0.0447 µM |
